# Test system: MDA-MB-231 complex spheroid viability
# Assay: Anticancer human tumor MDA-MB-231/ATCC cell line growth inhibition;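 further: drug exposure lasted 7 days starting on day 3 of spheroid growth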
# Conditions: for IC50: curve of first compound; for viability, T/C: stronger effect = lower value
# Method in brief: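 Drug combinations with the LSD1 inhibitor iadademstat tested on tumor cells co-cultured as spheroids with endothelial cells and mesenchymal stem cells. Concentrations descended in half-log increments from clinical Cmax or 10 microM.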
# [1] = second compound 0.1 µM, first compound 0.000949 µM
# [2] = second compound 0.1 µM, first compound 0.003 µM
# [3] = second compound 0.1 µM, first compound 0.00949 µM
# [4] = second compound 0.1 µM, first compound 0.03 µM
# [5] = second compound 0.1 µM, first compound 0.0949 µM
# [6] = second compound 0.1 µM, first compound 0.3 µM
# [7] = second compound 0.316 µM, first compound 0.000949 µM
# [8] = second compound 0.316 µM, first compound 0.003 µM
# [9] = second compound 0.316 µM, first compound 0.00949 µM
# [10] = second compound 0.316 µM, first compound 0.03 µM
# [11] = second compound 0.316 µM, first compound 0.0949 µM
# [12] = second compound 0.316 µM, first compound 0.3 µM
# [13] = second compound 1 µM, first compound 0.000949 µM
# [14] = second compound 1 µM, first compound 0.003 µM
# [15] = second compound 1 µM, first compound 0.00949 µM
# [16] = second compound 1 µM, first compound 0.03 µM
# [17] = second compound 1 µM, first compound 0.0949 µM
# [18] = second compound 1 µM, first compound 0.3 µM
# [19] = second compound 3.16 µM, first compound 0.000949 µM
# [20] = second compound 3.16 µM, first compound 0.003 µM
# [21] = second compound 3.16 µM, first compound 0.00949 µM
# [22] = second compound 3.16 µM, first compound 0.03 µM
# [23] = second compound 3.16 µM, first compound 0.0949 µM
# [24] = second compound 3.16 µM, first compound 0.3 µM
# [25] = second compound 10 µM, first compound 0.000949 µM
# [26] = second compound 10 µM, first compound 0.003 µM
# [27] = second compound 10 µM, first compound 0.00949 µM
# [28] = second compound 10 µM, first compound 0.03 µM
# [29] = second compound 10 µM, first compound 0.0949 µM
# [30] = second compound 10 µM, first compound 0.3 µM
compound,measurement,setting,value
CCc1c2c(nc3ccc(O)cc13)-c1cc3c(c(=O)n1C2)COC(=O)[C@]3(O)CC + NC1CC1c1ccc(-c2cccc(O)c2)cc1,IC50,second compound 0.1 µM,< 0.949 nM
same,IC50,second compound 0.316 µM,< 0.949 nM
same,IC50,second compound 1 µM,< 0.949 nM
same,IC50,second compound 3.16 µM,< 0.949 nM
same,IC50,second compound 10 µM,< 0.949 nM
same,"viability, T/C",[1],22.7%
same,"viability, T/C",[2],19.7%
same,"viability, T/C",[3],18.3%
same,"viability, T/C",[4],4.83%
same,"viability, T/C",[5],1.03%
same,"viability, T/C",[6],0.74%
same,"viability, T/C",[7],22.5%
same,"viability, T/C",[8],22%
same,"viability, T/C",[9],19.4%
same,"viability, T/C",[10],5.07%
same,"viability, T/C",[11],0.91%
same,"viability, T/C",[12],0.54%
same,"viability, T/C",[13],23.9%
same,"viability, T/C",[14],20.1%
same,"viability, T/C",[15],17.1%
same,"viability, T/C",[16],5.94%
same,"viability, T/C",[17],0.68%
same,"viability, T/C",[18],0.61%
same,"viability, T/C",[19],22.4%
same,"viability, T/C",[20],20.1%
same,"viability, T/C",[21],18.4%
same,"viability, T/C",[22],5.48%
same,"viability, T/C",[23],0.85%
same,"viability, T/C",[24],0.54%
same,"viability, T/C",[25],18.5%
same,"viability, T/C",[26],20.4%
same,"viability, T/C",[27],13.1%
same,"viability, T/C",[28],1.68%
same,"viability, T/C",[29],0.74%
same,"viability, T/C",[30],0.5%
Nc1ccccc1NC(=O)c1ccc(CNC(=O)OCc2cccnc2)cc1 + NC1CC1c1ccc(-c2cccc(O)c2)cc1,IC50,second compound 0.1 µM,13.3 nM
same,IC50,second compound 0.316 µM,10.5 nM
same,IC50,second compound 1 µM,< 9.49 nM
same,IC50,second compound 3.16 µM,< 9.49 nM
same,IC50,second compound 10 µM,< 9.49 nM
same,"viability, T/C",[3],56.6%
same,"viability, T/C",[4],34.9%
same,"viability, T/C",[5],22.7%
same,"viability, T/C",[6],12.2%
same,"viability, T/C","second compound 0.1 µM, first compound 0.949 µM",2.07%
same,"viability, T/C","second compound 0.1 µM, first compound 3 µM",0.17%
same,"viability, T/C",[9],52.7%
same,"viability, T/C",[10],31.5%
same,"viability, T/C",[11],21%
same,"viability, T/C",[12],10.6%
same,"viability, T/C","second compound 0.316 µM, first compound 0.949 µM",1.85%
same,"viability, T/C","second compound 0.316 µM, first compound 3 µM",0.16%
same,"viability, T/C",[15],43.3%
same,"viability, T/C",[16],27%
same,"viability, T/C",[17],21.7%
same,"viability, T/C",[18],9.99%
same,"viability, T/C","second compound 1 µM, first compound 0.949 µM",1.67%
same,"viability, T/C","second compound 1 µM, first compound 3 µM",0.15%
same,"viability, T/C",[21],46.3%
same,"viability, T/C",[22],31.6%
same,"viability, T/C",[23],21.3%
same,"viability, T/C",[24],13.3%
same,"viability, T/C","second compound 3.16 µM, first compound 0.949 µM",1.34%
same,"viability, T/C","second compound 3.16 µM, first compound 3 µM",0.13%
same,"viability, T/C",[27],36.3%
same,"viability, T/C",[28],22.1%
same,"viability, T/C",[29],12%
same,"viability, T/C",[30],7.05%
same,"viability, T/C","second compound 10 µM, first compound 0.949 µM",0.48%
same,"viability, T/C","second compound 10 µM, first compound 3 µM",0.24%
Nc1ccn(C2OC(CO)C(O)C2(F)F)c(=O)n1 (stereo not given) + NC1CC1c1ccc(-c2cccc(O)c2)cc1,IC50,second compound 0.1 µM,< 0.949 nM
same,IC50,second compound 0.316 µM,< 0.949 nM
same,IC50,second compound 1 µM,< 0.949 nM
same,IC50,second compound 3.16 µM,< 0.949 nM
same,IC50,second compound 10 µM,< 0.949 nM
same,"viability, T/C",[1],30.5%
same,"viability, T/C",[2],24.4%
same,"viability, T/C",[3],22.2%
same,"viability, T/C",[4],19.4%
same,"viability, T/C",[5],17.4%
same,"viability, T/C",[6],12%
same,"viability, T/C",[7],28%
same,"viability, T/C",[8],23.6%
same,"viability, T/C",[9],21.3%
same,"viability, T/C",[10],14.5%
same,"viability, T/C",[11],14.1%
same,"viability, T/C",[12],12.9%
same,"viability, T/C",[13],30.8%
same,"viability, T/C",[14],21.8%
same,"viability, T/C",[15],22.4%
same,"viability, T/C",[16],15.6%
same,"viability, T/C",[17],15.3%
same,"viability, T/C",[18],12.3%
same,"viability, T/C",[19],33.8%
same,"viability, T/C",[20],23.9%
same,"viability, T/C",[21],19.9%
same,"viability, T/C",[22],17.5%
same,"viability, T/C",[23],15.8%
same,"viability, T/C",[24],11.3%
same,"viability, T/C",[25],22.9%
same,"viability, T/C",[26],18.1%
same,"viability, T/C",[27],16%
same,"viability, T/C",[28],13.6%
same,"viability, T/C",[29],10.9%
same,"viability, T/C",[30],9.95%
O=C(c1cc(Cc2n[nH]c(=O)c3ccccc23)ccc1F)N1CCN(C(=O)C2CC2)CC1 + NC1CC1c1ccc(-c2cccc(O)c2)cc1,IC50,second compound 0.1 µM,1730 nM
same,IC50,second compound 0.316 µM,522 nM
same,IC50,second compound 1 µM,378 nM
same,IC50,second compound 3.16 µM,349 nM
same,IC50,second compound 10 µM,< 31.6 nM
same,"viability, T/C","second compound 0.1 µM, first compound 0.0316 µM",71.6%
same,"viability, T/C","second compound 0.1 µM, first compound 0.1 µM",64.2%
same,"viability, T/C","second compound 0.1 µM, first compound 0.316 µM",67%
same,"viability, T/C","second compound 0.1 µM, first compound 1 µM",56.1%
same,"viability, T/C","second compound 0.1 µM, first compound 3.16 µM",42.7%
same,"viability, T/C","second compound 0.1 µM, first compound 10 µM",27.1%
same,"viability, T/C","second compound 0.316 µM, first compound 0.0316 µM",65.5%
same,"viability, T/C","second compound 0.316 µM, first compound 0.1 µM",60.6%
same,"viability, T/C","second compound 0.316 µM, first compound 0.316 µM",54.8%
same,"viability, T/C","second compound 0.316 µM, first compound 1 µM",44.5%
same,"viability, T/C","second compound 0.316 µM, first compound 3.16 µM",32.3%
same,"viability, T/C","second compound 0.316 µM, first compound 10 µM",24.8%
same,"viability, T/C","second compound 1 µM, first compound 0.0316 µM",59.6%
same,"viability, T/C","second compound 1 µM, first compound 0.1 µM",56.9%
same,"viability, T/C","second compound 1 µM, first compound 0.316 µM",50.7%
same,"viability, T/C","second compound 1 µM, first compound 1 µM",44.3%
same,"viability, T/C","second compound 1 µM, first compound 3.16 µM",32%
same,"viability, T/C","second compound 1 µM, first compound 10 µM",21.1%
same,"viability, T/C","second compound 3.16 µM, first compound 0.0316 µM",65.3%
same,"viability, T/C","second compound 3.16 µM, first compound 0.1 µM",54.1%
same,"viability, T/C","second compound 3.16 µM, first compound 0.316 µM",50.6%
same,"viability, T/C","second compound 3.16 µM, first compound 1 µM",45.1%
same,"viability, T/C","second compound 3.16 µM, first compound 3.16 µM",33%
same,"viability, T/C","second compound 3.16 µM, first compound 10 µM",22.2%
same,"viability, T/C","second compound 10 µM, first compound 0.0316 µM",45.4%
same,"viability, T/C","second compound 10 µM, first compound 0.1 µM",38.2%
same,"viability, T/C","second compound 10 µM, first compound 0.316 µM",36.4%
same,"viability, T/C","second compound 10 µM, first compound 1 µM",37.2%
same,"viability, T/C","second compound 10 µM, first compound 3.16 µM",23.3%
same,"viability, T/C","second compound 10 µM, first compound 10 µM",19.9%

# — PubChem BioAssay AID1918953 (Molecular Pharmacology Branch, DTP, NCI, 2023)
